Reference: patent publication US11230526B1, “Cylcoalkenyl derivatives useful as agonists of the GPR120 and/or GPR40 receptors” (Janssen Pharmaceutica NV, priority 2018, dated 2022)

Key:
[1] = target: T1, short form of the GPR120 receptor (Homo sapiens, UniProt Q5NUL3); test: Human GPR120 DiscoveRx PathHunter Beta-Arrestin assay, Procedure β-arrestin B; type: cell-based
T1 construct: host or cells: PathHunter CHO-K1 GPR120S β-Arrestin Cell Line

C57bl/6J Mice = test: GPR120 C57bl6 mouse IPGTT; type: in vivo; settings: male C57bl/6J mice, dosed 30 minutes prior to glucose (IP) 1.5 g/kg
Description: Male, C57bl/6J Mice were ordered in at 8 weeks of age from Jackson Labs. Individual mice weighed anywhere in the range of 25-30 grams on study day. The mice were fasted, with removal of food occurring at 7 am on the morning of the study. Animals were moved into the room at 10:00 am, to give them time to acclimate. Glucose (insulin syringes) was drawn up either the night before or the morning of the study. Glucose was dosed (IP) at 1.5 g/kg at 7.5 ml/kg (20% glucose straight TEKNOVA, 250 ml sterile bottle w/catalogue number G0525). Test compounds were kept spinning and were only drawn into the syringes prior to study commencement. Animals were bled via tail snip to determine basal glucose levels prior to dosing of treatments. An Ascensia BREEZE Blood Glucose Monitoring System by Bayer (using unique 10-test disks) was used for determining glucose levels. The bleeds started at approximately 12:45 pm and dosing started, at 1-minute intervals, immediately after. All groups were dosed 30 minutes prior to glucose administration at a dose volume of 10 ml/kg (the dose volume was calculated separately for each individual animal). Thirty minutes after the first dose animals were bled again for a second baseline, or T=0, and immediately dosed with glucose via an i.p. injection. The exact dose volume for glucose was also calculated separately for each individual animal. Glucose measurements were taken at −30 min prior to compound dose, at t=0 (immediately prior to glucose dose), and at 15, 30, 45, 60, 90 min post glucose dose.
Glucose values were entered into an Excel sheet and graphed in GraphPad Prism. The following were calculated from Prism: Change from −30 to 0 Baseline Glucose, Raw Glucose AUC −30 to 90 min, Delta Glucose AUC −30 to 90 min, Raw Glucose AUC 0 to 90 min, Delta Glucose AUC 0 to 90 min.

T1 sequence (Q5NUL3 whole entry): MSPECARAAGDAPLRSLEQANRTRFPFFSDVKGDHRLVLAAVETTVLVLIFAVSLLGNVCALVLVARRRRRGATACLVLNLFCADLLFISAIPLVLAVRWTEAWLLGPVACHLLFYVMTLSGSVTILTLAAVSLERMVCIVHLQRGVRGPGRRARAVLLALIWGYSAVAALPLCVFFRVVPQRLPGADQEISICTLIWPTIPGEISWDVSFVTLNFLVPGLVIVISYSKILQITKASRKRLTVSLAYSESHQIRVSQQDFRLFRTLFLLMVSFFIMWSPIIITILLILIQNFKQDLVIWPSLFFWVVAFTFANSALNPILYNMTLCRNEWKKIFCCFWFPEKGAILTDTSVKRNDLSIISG
T1 sequence (P32121 whole entry partner): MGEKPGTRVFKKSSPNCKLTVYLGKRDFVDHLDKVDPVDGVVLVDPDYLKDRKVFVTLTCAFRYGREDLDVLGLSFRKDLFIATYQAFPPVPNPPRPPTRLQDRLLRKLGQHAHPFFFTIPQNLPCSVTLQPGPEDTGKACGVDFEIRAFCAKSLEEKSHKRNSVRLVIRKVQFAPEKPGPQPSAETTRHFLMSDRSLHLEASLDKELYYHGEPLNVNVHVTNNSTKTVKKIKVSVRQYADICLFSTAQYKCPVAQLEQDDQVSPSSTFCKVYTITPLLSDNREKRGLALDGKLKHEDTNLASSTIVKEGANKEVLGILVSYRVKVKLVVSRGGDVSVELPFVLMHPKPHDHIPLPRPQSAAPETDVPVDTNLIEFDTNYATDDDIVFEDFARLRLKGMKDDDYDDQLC

| SMILES | EC50 [1] | C57 IPGTT, Dose Response Results (C57bl/6J Mice; 3 mg/kg) | C57 IPGTT, Dose Response Results (C57bl/6J Mice; 10 mg/kg) | C57 IPGTT, Dose Response Results (C57bl/6J Mice; 30 mg/kg) | C57 IPGTT, Dose Response Results (C57bl/6J Mice; 1 mg/kg) |
| --- | --- | --- | --- | --- | --- |
| CCc1ccc(C2=C(COc3ccc(CCC(=O)O)c(F)c3F)CCC2)cc1 [Compound 25, 3-(4-((2-(4-ethylphenyl)cyclopent-1-en-1-yl)methoxy)-2,3-difluorophenyl)Propanoic Acid] | 89 nM | 17% | 22% | 39% | – |
| CCc1ccc(C2=C(COc3ccc(CCC(=O)O)c(C)c3C)CCC2)cc1 [Compound 27, 3-(4-((2-(4-ethylphenyl)cyclopent-1-en-1-yl)methoxy)-2,3-dimethylphenyl)Propanoic Acid] | 77 nM | 23% | 37% | – | 15% |
| Cc1ccc(C2=C(COc3ccc(CCC(=O)O)c(C)c3C)CCC2)cc1 [Compound 52, 3-[2,3-dimethyl-4-[[2-(p-tolyl)cyclopenten-1-yl]methoxy]phenyl]Propanoic Acid] | 63 nM | 11% | 30% | 92% | – |
| Cc1cc(CCC(=O)O)ccc1OCC1=C(c2ccc(Cl)cc2)CCC1 [Compound 62, 3-[4-[[2-(4-chlorophenyl)cyclopenten-1-yl]methoxy]-3-methyl-phenyl]Propanoic Acid] | 75 nM | 35% | 56% | – | 10% |
| Cc1ccc(C2=C(COc3ccc(CCC(=O)O)c(C)c3C)CCC2)cc1F [Compound 80, 3-(4-((2-(3-fluoro-4-methylphenyl)cyclopent-1-en-1-yl)methoxy)-2,3-dimethylphenyl)Propanoic Acid] | 139 nM | 10% | 55% | 81% | – |
| Cc1ccc(C2=C(COc3ccc(CCC(=O)O)c(C)c3C)CCC2)cn1 [Compound 85, 3-(2,3-dimethyl-4-((2-(6-methylpyridin-3-yl)cyclopent-1-en-1-yl)methoxy)phenyl)Propanoic Acid] | 725 nM | 24% | 19% | – | 13% |
| Cc1cc(CCC(=O)O)ccc1OCC1=C(c2ccc(Cl)cc2)CCCC1 [Compound 483, 3-[4-[[2-(4-chlorophenyl)cyclohexen-1-yl]methoxy]-3-methyl-phenyl]Propanoic Acid] | 155 nM | 33% | 51% | – | 23% |
| O=C(O)CCc1ccc(OCC2=C(c3ccc(Cl)cc3)CCCC2)c(F)c1F [Compound 513, 3-[4-[[2-(4-chlorophenyl)cyclohexen-1-yl]methoxy]-2,3-difluoro-phenyl]Propanoic Acid] | 137 nM | – | – | – | – |
| O=C(O)CCc1ccc(OCC2=C(c3ccc(Cl)cc3)CCCC2)c2c1CCC2 [Compound 514, 3-[7-[[2-(4-chlorophenyl)cyclohexen-1-yl]methoxy]indan-4-yl]Propanoic Acid] | 252 nM | – | – | – | – |
